The nature of data set [1]: refractive index (Na D-line) (dimensionless). Conditions: 298.15 K; 101.33 kPa; Liquid; Standard Abbe refractometry.
For data set [2] the following is noted: 298.15 K; 101.33 kPa; Liquid; Vibrating tube method.

Numbers after ± are expanded uncertainties.

We go through one compound from the NIST ThermoML archive (doi:10.1016/j.jct.2009.05.008).

As to `CCOS(=O)(=O)[O-].CC[n+]1cccc(C)c1` [1-ethyl-3-methylpyridinium ethylsulfate], the refractive index (usually the speed of light in vacuum divided by its phase velocity in the sample) in data set [1] amounted to 1.50591 ± 0.00075. The mass density (usually the mass of a sample divided by its volume) in data set [2] came to 1219.61 ± 1.1 kg/m3.
